Measurements taken from PubChem BioAssay AID2060889 (Molecular Pharmacology Branch, DTP, NCI, 2025).
One block for each molecule: values may come before it.

Test system: LG0567-F671-PDC complex spheroids viability
Assay: Anticancer human tumor LG0567-F671-PDC patient-derived lung adenocarcinoma cell line growth inhibition [RAS]
Details: for IC50: curve of first compound; for viability, T/C: stronger effect = lower value
Description: RAS pathway inhibitors in Combinations in Complex Spheroids
A high-throughput screen of multi-cell type tumor spheroids was designed to identify active combinations of RAS pathway inhibitors and targeted small molecules. Complex spheroids include a stromal component modeled by human endothelial cells (HUVEC) and fibroblasts modeled by human mesenchymal stem cells (MSCs). The concentration ranges selected for each drug and investigational agent were based upon clinically achievable concentrations if the clinical Cmax of the agent was known.
Compounds. The drugs and investigational agents: abemaciclib (NSC768073), cobimetinib (NSC768068), divarasib (GDC6063, NSC841802), docetaxel (NSC628503), GDC-1971 (RLY-1971, NSC841576), gemcitabine (NSC613327), inavolisib (NSC800729), ipatasertib (NSC767898), KB-0742 (NSC834161), MRTX-1133 (NSC836407), osimertinib (NSC779217), RMC-4630 (NSC839698), RMC-6236 (NSC851965), RMC-6291 (NSC852671), Ro-3306 (NSC812927), sapanisertib (NSC764658), SN-38 (NSC673596), staurosporine (NSC755774), SY5609 (NSC837396), and tovorafenib (DAY101, NSC766906), were obtained from the National Cancer Institute (NCI) Developmental Therapeutics Program Chemical Repository. The FDA-approved anticancer drug set is available from the NCI Developmental Therapeutics Program. […] The stock solutions were prepared in dimethyl sulfoxide (DMSO, Sigma-Aldrich, St. Louis, MO, cat. D2650) at 800-fold the tested concentration and stored at -70 degrees C prior to their use. All drugs and investigational agents were tested over a range starting from a high concentration at or near the clinical Cmax and decreasing in half-log increments. If the clinical Cmax for an agent had not been determined, the highest concentration tested was 10 microM.
Cell Culture. All cells were maintained in an incubator at 37 degrees C and 5% CO2 with 95% humidity. The PDC lines were cultured according to standard operating procedures established by the NCI PDMR. All PDCs were thawed and cultured in Matrigel-coated flasks prepared with a working solution of 1X Ham's F-12 nutrient mix, without supplementation (Invitrogen, Waltham, MA, cat. 11765054), 100 U/mL penicillin-streptomycin (Invitrogen, cat. 15140122), and 2.5% Matrigel (Corning Inc., Corning, NY, cat. 354248) for the first three passages. The 362531-283-R-J2-PDC and 782815-120-R-J1-PDC lines were cultured in 6C/Colon 1B media, which includes advanced DMEM/F-12 (Thermo Fisher Scientific, cat. 12634028), 10 mM HEPES (Thermo Fisher Scientific, cat. 15630080), 1X GlutaMAX supplement (Thermo Fisher Scientific, cat. 35050061), 0.1 mg/mL primocin (InvivoGen, San Diego, CA, cat. ant-pm-2), 10% defined fetal bovine serum, heat inactivated (HyClone Laboratories Inc., Logan, UT, cat. SH30070.03HI), 50% L-WRN conditioned media (ATCC, cat. CRL-3276), 1.25 mM N-Acetyl-L-cysteine (Sigma-Aldrich, cat. A9165), 10 mM nicotinamide (Sigma-Aldrich, cat. N0636), 1X B-27 supplement (Thermo Fisher Scientific, cat. 17504044), 1X N-2 supplement (Thermo Fisher Scientific, cat. 17502048), 50 ng/mL human EGF (Thermo Fisher Scientific, cat. PHG0311), and 10 microM Y-27632 dihydrochloride (Tocris Bioscience, cat. 1254). The K12877-001-R-J1-PDC line was cultured in 6I media, which includes all 6C/Colon 1B media plus 10 ng/mL human FGF-10 (PeproTech, cat. 100-26), 1 ng/mL human FGF-2 (PeproTech, cat. 100-18B), 1 µM prostaglandin E2 (Tocris Bioscience, cat. 2296), […] hydrocortisone (Sigma-Aldrich, cat. H4001), and […] bovine insulin (Sigma-Aldrich, cat. I6634). The K86415-001-R-J1-PDC line was cultured in 6D media, which includes all 6C/Colon 1B media components minus the L-WRN conditioned media. The 485176-168-R4-J1-PDC was cultured in PANC media, which includes all 6C/Colon 1B media plus 100 ng/mL human FGF-10 (PeproTech, cat. 100-26), 500 nM SB-431542 (Selleckchem, cat. S1067), and 10 nM gastrin (Tocris Bioscience, cat. 3006). […]

[1] = second compound 0.0316 µM, first compound 0.0316 µM
[2] = second compound 0.0316 µM, first compound 0.1 µM
[3] = second compound 0.0316 µM, first compound 0.316 µM
[4] = second compound 0.0316 µM, first compound 1 µM
[5] = second compound 0.0316 µM, first compound 3.16 µM
[6] = second compound 0.0316 µM, first compound 10 µM
[7] = second compound 0.1 µM, first compound 0.0316 µM
[8] = second compound 0.1 µM, first compound 0.1 µM
[9] = second compound 0.1 µM, first compound 0.316 µM
[10] = second compound 0.1 µM, first compound 1 µM
[11] = second compound 0.1 µM, first compound 3.16 µM
[12] = second compound 0.1 µM, first compound 10 µM
[13] = second compound 0.316 µM, first compound 0.0316 µM
[14] = second compound 0.316 µM, first compound 0.1 µM
[15] = second compound 0.316 µM, first compound 0.316 µM
[16] = second compound 0.316 µM, first compound 1 µM
[17] = second compound 0.316 µM, first compound 3.16 µM
[18] = second compound 0.316 µM, first compound 10 µM
[19] = second compound 1 µM, first compound 0.0316 µM
[20] = second compound 1 µM, first compound 0.1 µM
[21] = second compound 1 µM, first compound 0.316 µM
[22] = second compound 1 µM, first compound 1 µM
[23] = second compound 1 µM, first compound 3.16 µM
[24] = second compound 1 µM, first compound 10 µM
[25] = second compound 3.16 µM, first compound 0.0316 µM
[26] = second compound 3.16 µM, first compound 0.1 µM
[27] = second compound 3.16 µM, first compound 0.316 µM
[28] = second compound 3.16 µM, first compound 1 µM
[29] = second compound 3.16 µM, first compound 3.16 µM
[30] = second compound 3.16 µM, first compound 10 µM
[31] = second compound 10 µM, first compound 0.0316 µM
[32] = second compound 10 µM, first compound 0.1 µM
[33] = second compound 10 µM, first compound 0.316 µM
[34] = second compound 10 µM, first compound 1 µM
[35] = second compound 10 µM, first compound 3.16 µM
[36] = second compound 10 µM, first compound 10 µM
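Also: spheroids exposed to compound for seven days before readout.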
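For IC50 in this document: luminescence signal used as a proxy for viable cells.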

IC50 (second compound 0.0316 µM): 1.9 µM | IC50 (second compound 0.1 µM): 1.71 µM | IC50 (second compound 0.316 µM): 1.25 µM | IC50 (second compound 1 µM): < 0.0316 µM | IC50 (second compound 3.16 µM): < 0.0316 µM | IC50 (second compound 10 µM): < 0.0316 µM
SMILES: CCC(CC)c1cc(NC2CCC(N)C2)n2nccc2n1 (stereo unspecified) + C#Cc1c(F)ccc2cc(O)cc(-c3ncc4c(N5CC6CCC(C5)N6)nc(OCC56CCCN5CC(F)C6)nc4c3F)c12
viability, T/C [1]: 102% | viability, T/C [2]: 97.2% | viability, T/C [3]: 111% | viability, T/C [4]: 119% | viability, T/C [5]: 4.67% | viability, T/C [6]: 0.25% | viability, T/C [7]: 78.4% | viability, T/C [8]: 83.5% | viability, T/C [9]: 92.2% | viability, T/C [10]: 104% | viability, T/C [11]: 4.32% | viability, T/C [12]: 0.47% | viability, T/C [13]: 60.3% | viability, T/C [14]: 57.3% | viability, T/C [15]: 59.7% | viability, T/C [16]: 67.8% | viability, T/C [17]: 3.78% | viability, T/C [18]: 0.39% | viability, T/C [19]: 32.4% | viability, T/C [20]: 37% | viability, T/C [21]: 43.4% | viability, T/C [22]: 38.2% | viability, T/C [23]: 3.47% | viability, T/C [24]: 0.38% | viability, T/C [25]: 18.2% | viability, T/C [26]: 17.8% | viability, T/C [27]: 20.2% | viability, T/C [28]: 17.1% | viability, T/C [29]: 2.86% | viability, T/C [30]: 0.37% | viability, T/C [31]: 10.3% | viability, T/C [32]: 11.3% | viability, T/C [33]: 10.3% | viability, T/C [34]: 9.32% | viability, T/C [35]: 1.25% | viability, T/C [36]: 0.15%

IC50 (second compound 0.0316 µM): > 10 µM | IC50 (second compound 0.1 µM): > 10 µM | IC50 (second compound 0.316 µM): 0.0622 µM | IC50 (second compound 1 µM): < 0.0316 µM | IC50 (second compound 3.16 µM): < 0.0316 µM | IC50 (second compound 10 µM): < 0.0316 µM
SMILES: CC(C)NCC(C(=O)N1CCN(c2ncnc3c2C(C)CC3O)CC1)c1ccc(Cl)cc1 (stereo unspecified) + C#Cc1c(F)ccc2cc(O)cc(-c3ncc4c(N5CC6CCC(C5)N6)nc(OCC56CCCN5CC(F)C6)nc4c3F)c12
viability, T/C [1]: 93.5% | viability, T/C [2]: 88.3% | viability, T/C [3]: 72% | viability, T/C [4]: 60.1% | viability, T/C [5]: 63.5% | viability, T/C [6]: 55% | viability, T/C [7]: 84.2% | viability, T/C [8]: 66% | viability, T/C [9]: 70.6% | viability, T/C [10]: 51.3% | viability, T/C [11]: 59.3% | viability, T/C [12]: 56.4% | viability, T/C [13]: 50.3% | viability, T/C [14]: 50.1% | viability, T/C [15]: 54.7% | viability, T/C [16]: 35.9% | viability, T/C [17]: 47% | viability, T/C [18]: 51.6% | viability, T/C [19]: 35.4% | viability, T/C [20]: 29.8% | viability, T/C [21]: 30% | viability, T/C [22]: 28.1% | viability, T/C [23]: 28.2% | viability, T/C [24]: 31.2% | viability, T/C [25]: 19.4% | viability, T/C [26]: 17.9% | viability, T/C [27]: 19.2% | viability, T/C [28]: 13.9% | viability, T/C [29]: 14.9% | viability, T/C [30]: 13.4% | viability, T/C [31]: 12.4% | viability, T/C [32]: 12.7% | viability, T/C [33]: 11.1% | viability, T/C [34]: 9.42% | viability, T/C [35]: 8.58% | viability, T/C [36]: 5.74%

IC50 (second compound 0.0316 µM): < 0.00316 µM | IC50 (second compound 0.1 µM): < 0.00316 µM | IC50 (second compound 0.316 µM): < 0.00316 µM | IC50 (second compound 1 µM): < 0.00316 µM | IC50 (second compound 3.16 µM): < 0.00316 µM | IC50 (second compound 10 µM): < 0.00316 µM
SMILES: C=CC(=O)N1CCN(c2nc(OCC3CCCN3C)nc3c(F)c(-c4nc(N)cc(C)c4C(F)(F)F)c(Cl)cc23)C(C)C1 (stereo unspecified) + C#Cc1c(F)ccc2cc(O)cc(-c3ncc4c(N5CC6CCC(C5)N6)nc(OCC56CCCN5CC(F)C6)nc4c3F)c12
viability, T/C (second compound 0.0316 µM, first compound 0.00316 µM): 17.4% | viability, T/C (second compound 0.0316 µM, first compound 0.01 µM): 12.2% | viability, T/C [1]: 11.1% | viability, T/C [2]: 12.7% | viability, T/C [3]: 12.4% | viability, T/C [4]: 11.7% | viability, T/C (second compound 0.1 µM, first compound 0.00316 µM): 14% | viability, T/C (second compound 0.1 µM, first compound 0.01 µM): 12% | viability, T/C [7]: 9.61% | viability, T/C [8]: 11.5% | viability, T/C [9]: 11% | viability, T/C [10]: 10.9% | viability, T/C (second compound 0.316 µM, first compound 0.00316 µM): 16.3% | viability, T/C (second compound 0.316 µM, first compound 0.01 µM): 15.7% | viability, T/C [13]: 11.2% | viability, T/C [14]: 8.83% | viability, T/C [15]: 13.8% | viability, T/C [16]: 9.54% | viability, T/C (second compound 1 µM, first compound 0.00316 µM): 20% | viability, T/C (second compound 1 µM, first compound 0.01 µM): 12.6% | viability, T/C [19]: 10.3% | viability, T/C [20]: 8.88% | viability, T/C [21]: 9.02% | viability, T/C [22]: 8.65% | viability, T/C (second compound 3.16 µM, first compound 0.00316 µM): 14% | viability, T/C (second compound 3.16 µM, first compound 0.01 µM): 10.2% | viability, T/C [25]: 8.81% | viability, T/C [26]: 7.62% | viability, T/C [27]: 9.35% | viability, T/C [28]: 8.07% | viability, T/C (second compound 10 µM, first compound 0.00316 µM): 10.8% | viability, T/C (second compound 10 µM, first compound 0.01 µM): 8.76% | viability, T/C [31]: 8.93% | viability, T/C [32]: 9.51% | viability, T/C [33]: 9.18% | viability, T/C [34]: 8.52%
